Assay: xn = mol fraction of the nth substance listed
Conditions: 101 kPa

CCCC[n+]1ccn(C)c1.F[P-](F)(F)(F)(F)F + CCCC[n+]1ccn(C)c1.F[B-](F)(F)F
viscosity [mPa·s]
Conditions | 298.15 K | 299.15 K | 301.15 K | 302.15 K | 303.15 K | 304.15 K | 305.15 K | 307.15 K | 308.15 K
x1 = 0.0568 | 106.8 | 101.3 | – | – | – | 79 | 75.3 | 68.5 | 65.39
x1 = 0.1034 | – | – | – | 94.4 | 89.7 | 85.5 | 81.4 | 74.3 | 70.9
x1 = 0.2095 | 128.1 | – | 109.5 | 103.9 | 98.8 | 94.2 | 89.5 | 81.3 | –
x1 = 0.3012 | 137.4 | 130.1 | 117 | 111.1 | 105.4 | 100.2 | 95.3 | 86.4 | 82.4
x1 = 0.3825 | 146.7 | 139.9 | 125.6 | – | 113 | 107.1 | 102.1 | – | –
x1 = 0.4647 | 157.7 | 145.6 | 131.8 | – | 118.1 | 111.8 | 106.9 | 96.4 | 91.9
x1 = 0.4999 | 169.3 | 159.7 | – | 135.8 | 128.2 | – | – | 103.9 | 98.4
x1 = 0.5385 | 168.5 | 159.6 | 142.9 | 134.8 | – | 121.6 | 114.9 | 104.1 | –
x1 = 0.5974 | 182.5 | 172.4 | 156.7 | 145.4 | 137.6 | 130.5 | 123.9 | 111.8 | 106
x1 = 0.6928 | 201.4 | 190.1 | 169.9 | 160.9 | 155.3 | 144.1 | – | 123.3 | 116.9
x1 = 0.833 | – | 214 | 190.2 | 179.5 | 169.7 | 160.5 | 154.5 | – | 129.2
x1 = 0.8877 | – | 224 | 199 | 187.7 | 177.3 | 167.5 | 159 | 142.2 | 134.8
x1 = 0.945 | 249 | 234 | 208 | 196.2 | 185.4 | 175.3 | – | – | 142.5
x1 = 1 | 279 | – | – | 218 | 206 | 194.8 | 183.8 | 164.5 | –

CCCCCC[n+]1ccn(C)c1.F[B-](F)(F)F + CC[n+]1ccn(C)c1.F[B-](F)(F)F
viscosity [mPa·s]
Conditions | 298.15 K | 299.15 K | 301.15 K | 302.15 K | 303.15 K | 304.15 K | 305.15 K | 307.15 K | 308.15 K
x2 = 0 | – | – | 177.2 | – | 160.9 | 148.4 | 141.2 | 127.5 | 120.7
x2 = 0.0545 | 184.1 | 173.9 | – | 147.1 | 139.3 | 132.4 | 125.1 | 113.1 | 107.3
x2 = 0.1196 | 171.7 | – | 145.5 | – | 130.2 | 123.7 | 117.7 | 106 | 100.8
x2 = 0.1803 | 158.1 | – | – | 125.9 | – | 113.4 | 108 | 97.5 | –
x2 = 0.3145 | 128.3 | – | 109.7 | 104.1 | 99.1 | 94.2 | – | 81.4 | –
x2 = 0.4061 | – | 106 | 95.9 | 91.3 | 87 | 82.8 | 78.9 | 71.9 | 68.8
x2 = 0.446 | 104.5 | 99.3 | 89.9 | 85.6 | 81.6 | 77.7 | 74.3 | 67.8 | 64.8
x2 = 0.4938 | 96 | – | 82.7 | 78.6 | 75.1 | 71.7 | – | 62.6 | –
x2 = 0.5526 | 86.7 | 82.5 | 75 | 71.4 | – | 65.3 | 62.36 | 57.17 | 54.84
x2 = 0.6006 | 78.3 | – | 68.1 | 64.9 | – | 59.61 | – | 52.51 | –
x2 = 0.7059 | 64.3 | 61.64 | 56.52 | 54.22 | – | – | 47.93 | 44.34 | 42.66
x2 = 0.793 | – | – | 47.42 | 45.56 | – | 42.09 | – | – | –
x2 = 0.8516 | 48.1 | 46.22 | – | – | 39.58 | 38.13 | 36.71 | 34.2 | 33
x2 = 0.9022 | 43.3 | – | – | – | 35.77 | – | – | – | –

CCCC[n+]1ccn(C)c1.F[B-](F)(F)F + CCCCCC[n+]1ccn(C)c1.F[B-](F)(F)F
x1 = 1
Conditions | viscosity [mPa·s]
298.15 K | 106.4
299.15 K | 101
301.15 K | 91.1
302.15 K | 86.7
303.15 K | 82.6
304.15 K | 78.9
307.15 K | 68.5
308.15 K | 65.4

— a compilation of properties of binary mixtures (doi:10.1007/s10953-008-9260-8)
